Data reported in patent EP2970215B1, “PYRROLIDINE DERIVATIVES, PHARMACEUTICAL COMPOSITIONS CONTAINING THEM, AND THEIR USE IN THERAPY” (AbbVie Deutschland GmbH & Co. KG, priority 2013, dated 2014).

Target: T1, human GlyT1c transporter (Homo sapiens, UniProt P48067)
T1 construct: expressed in transfected cells; host or cells: CHO cells (recombinant; line hGlyT1c_5_CHO is named for the uptake assay)
T1 sequence (P48067 1-706): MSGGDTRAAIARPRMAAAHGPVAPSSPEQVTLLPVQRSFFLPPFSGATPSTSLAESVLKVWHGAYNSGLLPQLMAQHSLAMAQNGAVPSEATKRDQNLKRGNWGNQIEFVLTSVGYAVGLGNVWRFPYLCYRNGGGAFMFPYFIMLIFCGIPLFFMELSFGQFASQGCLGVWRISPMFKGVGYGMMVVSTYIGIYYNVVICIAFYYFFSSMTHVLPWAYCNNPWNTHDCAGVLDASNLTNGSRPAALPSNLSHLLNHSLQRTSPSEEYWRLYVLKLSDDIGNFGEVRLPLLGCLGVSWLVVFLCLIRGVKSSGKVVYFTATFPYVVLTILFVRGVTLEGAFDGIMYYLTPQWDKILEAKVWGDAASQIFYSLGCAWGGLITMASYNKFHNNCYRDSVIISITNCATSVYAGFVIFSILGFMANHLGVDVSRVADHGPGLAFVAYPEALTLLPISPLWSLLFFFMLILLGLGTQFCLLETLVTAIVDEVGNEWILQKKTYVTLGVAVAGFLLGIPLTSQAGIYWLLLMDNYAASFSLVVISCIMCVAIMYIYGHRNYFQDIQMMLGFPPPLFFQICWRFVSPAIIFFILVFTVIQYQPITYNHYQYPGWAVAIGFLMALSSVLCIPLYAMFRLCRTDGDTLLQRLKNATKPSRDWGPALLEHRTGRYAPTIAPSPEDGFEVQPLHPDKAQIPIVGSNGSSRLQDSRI
Assay: Radioligand binding assay using recombinant CHO cell membranes expressing human GlyT1
Conditions: radioligand binding to human GlyT1c transporter-expressing membranes
Text: 2. Radioligand binding assays using recombinant CHO cell membranes expressing human GlyT1: […]

Row | Ki [µM] | SMILES
1 | ≤ 10 | Cn1cnc(S(=O)(=O)N2C[C@@H](Nc3nccc(C(F)(F)F)n3)[C@H](c3ccccc3)C2)c1 (relative stereo) [Example 227, N-{trans-1-[(1-methyl-1H-imidazol-4-yl)sulfonyl]-4-phenylpyrrolidin-3-yl}-4-(trifluoromethyl)pyrimidin-2-amine]
2 | ≤ 10 | Cn1cnc(S(=O)(=O)N2C[C@@H](Nc3ccc4cccnc4c3)[C@H](c3ccccc3)C2)c1 (relative stereo) [Example 228, N-{trans-1-[(1-methyl-1H-imidazol-4-yl)sulfonyl]-4-phenylpyrrolidin-3-yl}quinolin-7-amine]
3 | ≤ 10 | Cn1cnc(S(=O)(=O)N2C[C@@H](Nc3ccc4ncccc4c3)[C@H](c3ccccc3)C2)c1 (relative stereo) [Example 229, N-{trans-1-[(1-methyl-1H-imidazol-4-yl)sulfonyl]-4-phenylpyrrolidin-3-yl}quinolin-6-amine]
4 | ≤ 10 | Cn1cnc(S(=O)(=O)N2C[C@@H](Nc3ccc4cnccc4c3)[C@H](c3ccccc3)C2)c1 (relative stereo) [Example 230, N-{trans-1-[(1-methyl-1H-imidazol-4-yl)sulfonyl]-4-phenylpyrrolidin-3-yl}isoquinolin-6-amine]
5 | ≤ 1 | Cn1cnc(S(=O)(=O)N2C[C@@H](Nc3cccc(F)c3F)[C@H](c3ccccc3)C2)c1 (relative stereo) [Example 231, trans-N-(2,3-difluorophenyl)-1-[(1-methyl-1H-imidazol-4-yl)sulfonyl]-4-phenylpyrrolidin-3-amine]
6 | ≤ 10 | Cn1cnc(S(=O)(=O)N2C[C@@H](Nc3cc(F)ccc3F)[C@H](c3ccccc3)C2)c1 (relative stereo) [Example 232, trans-N-(2,5-difluorophenyl)-1-[(1-methyl-1H-imidazol-4-yl)sulfonyl]-4-phenylpyrrolidin-3-amine]
7 | ≤ 10 | Cn1cnc(S(=O)(=O)N2C[C@@H](Nc3ccc(F)cc3F)[C@H](c3ccccc3)C2)c1 (relative stereo) [Example 233, trans-N-(2,4-difluorophenyl)-1-[(1-methyl-1H-imidazol-4-yl)sulfonyl]-4-phenylpyrrolidin-3-amine]
8 | ≤ 1 | Cn1cnc(S(=O)(=O)N2C[C@@H](Nc3ccc(F)c(F)c3F)[C@H](c3ccccc3)C2)c1 (relative stereo) [Example 234, trans-1-[(1-methyl-1H-imidazol-4-yl)sulfonyl]-4-phenyl-N-(2,3,4-trifluorophenyl)pyrrolidin-3-amine]
9 | ≤ 10 | Cn1cnc(S(=O)(=O)N2C[C@@H](Nc3cccc(F)n3)[C@H](c3ccccc3)C2)c1 (relative stereo) [Example 235, 6-fluoro-N-{trans-1-[(1-methyl-1H-imidazol-4-yl)sulfonyl]-4-phenylpyrrolidin-3-yl}pyridin-2-amine]
10 | ≤ 10 | Cn1cnc(S(=O)(=O)N2C[C@@H](Nc3ccnc(F)c3)[C@H](c3ccccc3)C2)c1 (relative stereo) [Example 236, 2-fluoro-N-{trans-1-[(1-methyl-1H-imidazol-4-yl)sulfonyl]-4-phenylpyrrolidin-3-yl}pyridin-4-amine]
11 | ≤ 10 | Cn1cnc(S(=O)(=O)N2C[C@@H](Nc3cncc(F)c3)[C@H](c3ccccc3)C2)c1 (relative stereo) [Example 237, 5-fluoro-N-{trans-1-[(1-methyl-1H-imidazol-4-yl)sulfonyl]-4-phenylpyrrolidin-3-yl}pyridin-3-amine]
12 | ≤ 10 | Cn1cnc(S(=O)(=O)N2C[C@@H](Nc3ccnc(F)c3)[C@H](c3ccc(F)cc3)C2)c1 (relative stereo) [Example 239, 2-fluoro-N-{trans-4-(4-fluorophenyl)-1-[(1-methyl-1H-imidazol-4-yl)sulfonyl]pyrrolidin-3-yl} pyridin-4-amine]
13 | ≤ 0.1 | Cn1cnc(S(=O)(=O)N2C[C@@H](Nc3cc(C(F)(F)F)ncn3)[C@H](c3ccccc3)C2)c1 (relative stereo) [Example 240, N-{trans-1-[(1-methyl-1H-imidazol-4-yl)sulfonyl]-4-phenylpyrrolidin-3-yl} -6-(trifluoromethyl)pyrimidin-4-amine]
14 | ≤ 10 | Cn1cnc(S(=O)(=O)N2C[C@@H](Nc3ccc4ccncc4c3)[C@H](c3ccccc3)C2)c1 (relative stereo) [Example 241, N-{trans-1-[(1-methyl-1H-imidazol-4-yl)sulfonyl]-4-phenylpyrrolidin-3-yl}isoquinolin-7-amine]
15 | ≤ 10 | Cn1cnc(S(=O)(=O)N2C[C@@H](C(=O)Nc3ccccc3)[C@H](c3ccc(F)cc3)C2)c1 (relative stereo) [Example 242, trans-4-(4-fluorophenyl)-1-[(1-methyl-1H-imidazol-4-yl)sulfonyl]-N-phenylpyrrolidine-3-carboxamide]
16 | ≤ 1 | Cn1cnc(S(=O)(=O)N2C[C@@H](C(=O)Nc3ccc(C(F)(F)F)cc3)[C@H](c3ccc(F)cc3)C2)c1 (relative stereo) [Example 243, Trans-4-(4-fluorophenyl)-1-[(1-methyl-1H-imidazol-4-yl)sulfonyl]-N-[4-(trifluoromethyl)phenyl]pyrrolidine-3-carboxamide]
17 | ≤ 1 | Cn1cnc(S(=O)(=O)N2C[C@@H](C(=O)Nc3cc(Cl)cc(Cl)c3)[C@H](c3ccc(F)cc3)C2)c1 (relative stereo) [Example 244, Trans-N-(3,5-dichlorophenyl)-4-(4-fluorophenyl)-1-[(1-methyl-1H-imidazol-4-yl)sulfonyl]pyrrolidine-3-carboxamide]
18 | ≤ 0.1 | Cn1cnc(S(=O)(=O)N2C[C@@H](COc3ccccc3)[C@H](c3ccc(F)cc3)C2)c1 (relative stereo) [Example 245, 4-{[trans-3-(4-fluorophenyl)-4-(phenoxymethyl)pyrrolidin-1-yl]sulfonyl}-1-methyl-1H-imidazole]
19 | ≤ 0.1 | Cn1cnc(S(=O)(=O)N2C[C@@H](COc3ccc(Cl)cc3Cl)[C@H](c3ccc(F)cc3)C2)c1 (relative stereo) [Example 246, 4-{[trans-3-[(2,4-dichlorophenoxy)methyl]-4-(4-fluorophenyl)pyrrolidin-1-yl]sulfonyl}-1-methyl-1H-imidazole]
20 | ≤ 1 | Cn1cnc(S(=O)(=O)N2C[C@@H](COc3cccc(Cl)c3)[C@H](c3ccc(F)cc3)C2)c1 (relative stereo) [Example 248, 4-{[trans-3-[(3-chlorophenoxy)methyl]-4-(4-fluorophenyl)pyrrolidin-1-yl]sulfonyl}-1-methyl-1H-imidazole]
21 | ≤ 1 | Cn1cnc(S(=O)(=O)N2C[C@@H](COc3ccc(Cl)c(C(F)(F)F)c3)[C@H](c3ccc(F)cc3)C2)c1 (relative stereo) [Example 249, 4-{[trans-3-{[4-chloro-3-(trifluoromethyl)phenoxy]methyl}-4-(4-fluorophenyl)pyrrolidin-1-yl]sulfonyl}-1-methyl-1H-imidazole]
22 | ≤ 10 | Cn1cnc(S(=O)(=O)N2C[C@@H](COc3cccc(C(F)(F)F)c3Cl)[C@H](c3ccc(F)cc3)C2)c1 (relative stereo) [Example 250, 4-{[trans-3-{[2-chloro-3-(trifluoromethyl)phenoxy]methyl}-4-(4-fluorophenyl)pyrrolidin-1-yl]sulfonyl}-1-methyl-1H-imidazole]
